# According to patent US20090062190A1, “Transcriptional Regulation of Cytokines by LITAF and STAT (6)(B)” (priority 2005, published 2009):
# System: translocation of STAT6(B) and LITAF in mouse macrophages
# Assay: Western blot after kinase inhibitor pretreatment plus LPS stimulation (FIG. 13)
# Assay type: cell-based
# Conditions: pretreatment before LPS stimulation
# From the text: It is well known that STAT family members share two major domains, oligomerization and Src homology 2 (SH2), for phosphorylation by Janis kinases (Jaks) that facilitate dimerization of STAT proteins and subsequent translocation into the nucleus (Gallmeier, et al., J Cell Physiol, 203:209-216, 2005; Chen, et al., J Allergy Clin Immunol, 114:476-489, 2004, Tang, et al., PNAS USA, 102:5132-5137, 2005). […] In this Western blot, cells were pretreated with various kinase inhibitors (FIG. 13a) before LPS stimulation.
compound,measurement,setting,value
C[S+]([O-])c1ccc(-c2nc(-c3ccncc3)c(-c3ccc(F)cc3)[nH]2)cc1 (stereo not drawn) [SB203580],TNF-α protein levels compared to cells exposed to LPS only,,suppression
same,LITAF and STAT6(B) expression in the nucleus,Western blot,substantially reduced
same,whole cell extract LITAF and STAT6(B) expression,Western blot,unchanged
